Test results taken from the NIST ThermoML archive (doi:10.1021/je100603q).
± gives the expanded uncertainty stated by the source.

Columns and labels:
[1] = molar enthalpy of transition or fusion; settings: 298.15 K; Crystal; Microcalorimetry
[2] = molar enthalpy of vaporization or sublimation; settings: 298.15 K; Crystal; Microcalorimetry

O=c1c2ccccc2sc2ccccc12 [thioxanthone]
molar enthalpy of transition or fusion [1]: 25.5 ± 0.574 kcal/mol

O=C1CCSCC1 [tetrahydro-4H-thiopyran-4-one]
molar enthalpy [2]: 17.5 ± 0.669 kcal/mol
